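The compound was tested at five concentrations on cells cultured in 96-well plates, with a 48-hour exposure period. GI50 marks 50% less growth. Definition used: TGI = concentration required for complete inhibition of growth.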
What was measured:
Assay in all cases: NCI tumour cell line growth inhibition, 48 h
MDA-MB-231 breast = system: MDA-MB-231 breast
SF-268 CNS = system: SF-268 CNS
SW-620 colon = system: SW-620 colon
SF-539 CNS = system: SF-539 CNS
SNB-19 CNS = system: SNB-19 CNS
MCF7 breast = system: MCF7 breast
OVCAR-4 ovarian = system: OVCAR-4 ovarian
MOLT-4 leukemia = system: MOLT-4 leukemia
EKVX NSCLC = system: EKVX NSCLC
OVCAR-3 ovarian = system: OVCAR-3 ovarian
HOP-62 NSCLC = system: HOP-62 NSCLC
CCRF-CEM leukemia = system: CCRF-CEM leukemia
NCI-H522 lung = system: NCI-H522 lung
BT-549 breast = system: BT-549 breast
HCC-2998 colon = system: HCC-2998 colon
DU-145 prostate = system: DU-145 prostate
OVCAR-5 ovarian = system: OVCAR-5 ovarian
A498 renal = system: A498 renal
SK-OV-3 ovarian = system: SK-OV-3 ovarian
NCI-H23 lung = system: NCI-H23 lung
RPMI-8226 leukemia = system: RPMI-8226 leukemia
SK-MEL-2 melanoma = system: SK-MEL-2 melanoma
KM12 colon = system: KM12 colon
COLO 205 colon = system: COLO 205 colon
SF-295 CNS = system: SF-295 CNS
U251 CNS = system: U251 CNS
HCT-116 colon = system: HCT-116 colon
MALME-3M melanoma = system: MALME-3M melanoma
LOX IMVI melanoma = system: LOX IMVI melanoma
HL-60(TB) leukemia = system: HL-60(TB) leukemia

For CC12CCC3(CCC(=O)NCCCNc4ccnc5cc(Cl)ccc45)[C@@](C)(OO[C@]3(C)O1)O2, which GI50 (MDA-MB-231 breast) is on record?
Its GI50 is 1.4 µM.

And the TGI (MDA-MB-231 breast)?
Its TGI is 9.92 µM.

What about the GI50 (SF-268 CNS) of the same compound?
The GI50 was 2.09 µM.

And the TGI (SF-268 CNS)?
Its TGI is 8.55 µM.

What about the GI50 (SW-620 colon) of the same compound?
Its GI50 is 3.62 µM.

What about the TGI (SW-620 colon) of the same compound?
The TGI was over 25.5 µM.

What about the GI50 (SF-539 CNS) of the same compound?
Its GI50 is 3.38 µM.

And the TGI (SF-539 CNS)?
Its TGI is 7.38 µM.

What about the GI50 (SNB-19 CNS) of the same compound?
Its GI50 is 7.12 µM.

And the TGI (SNB-19 CNS)?
The TGI was over 25.5 µM.

What about the GI50 (MCF7 breast) of the same compound?
The GI50 was 1.68 µM.

What about the TGI (MCF7 breast) of the same compound?
Its TGI is over 25.5 µM.

What about the GI50 (OVCAR-4 ovarian) of the same compound?
Its GI50 is 4.89 µM.

And the TGI (OVCAR-4 ovarian)?
Its TGI is over 25.5 µM.

And the GI50 (MOLT-4 leukemia)?
Its GI50 is 4.68 µM.

And the TGI (MOLT-4 leukemia)?
Its TGI is 14.3 µM.

What about the GI50 (EKVX NSCLC) of the same compound?
Its GI50 is 1.99 µM.

And the TGI (EKVX NSCLC)?
The TGI was 19.4 µM.

What about the GI50 (OVCAR-3 ovarian) of the same compound?
The GI50 was 3.61 µM.

And the TGI (OVCAR-3 ovarian)?
Its TGI is 10.8 µM.

And the GI50 (HOP-62 NSCLC)?
Its GI50 is 1.41 µM.

What about the TGI (HOP-62 NSCLC) of the same compound?
The TGI was 6.48 µM.

And the GI50 (CCRF-CEM leukemia)?
Its GI50 is 3.85 µM.

And the TGI (CCRF-CEM leukemia)?
Its TGI is 11 µM.

And the GI50 (NCI-H522 lung)?
Its GI50 is 3.02 µM.

And the TGI (NCI-H522 lung)?
The TGI was 6.79 µM.

What about the GI50 (BT-549 breast) of the same compound?
Its GI50 is 5.28 µM.

What about the TGI (BT-549 breast) of the same compound?
Its TGI is 15.5 µM.

What about the GI50 (HCC-2998 colon) of the same compound?
Its GI50 is 8.01 µM.

And the TGI (HCC-2998 colon)?
Its TGI is over 25.5 µM.

What about the GI50 (DU-145 prostate) of the same compound?
The GI50 was 3.42 µM.

And the TGI (DU-145 prostate)?
Its TGI is 11.9 µM.

What about the GI50 (OVCAR-5 ovarian) of the same compound?
The GI50 was 4.2 µM.

What about the TGI (OVCAR-5 ovarian) of the same compound?
The TGI was 16 µM.

And the GI50 (A498 renal)?
The GI50 was 3.86 µM.

And the TGI (A498 renal)?
The TGI was 22.7 µM.

And the GI50 (SK-OV-3 ovarian)?
The GI50 was 5.46 µM.

And the TGI (SK-OV-3 ovarian)?
Its TGI is 16.1 µM.

What about the GI50 (NCI-H23 lung) of the same compound?
The GI50 was 3.77 µM.

And the TGI (NCI-H23 lung)?
Its TGI is 11.8 µM.

And the GI50 (RPMI-8226 leukemia)?
Its GI50 is 5.86 µM.

What about the TGI (RPMI-8226 leukemia) of the same compound?
Its TGI is over 25.5 µM.

What about the GI50 (SK-MEL-2 melanoma) of the same compound?
Its GI50 is 8.21 µM.

And the TGI (SK-MEL-2 melanoma)?
Its TGI is over 25.5 µM.

And the GI50 (KM12 colon)?
The GI50 was 4.5 µM.

And the TGI (KM12 colon)?
The TGI was 24.2 µM.

And the GI50 (COLO 205 colon)?
Its GI50 is 4.99 µM.

And the TGI (COLO 205 colon)?
The TGI was over 25.5 µM.

And the GI50 (SF-295 CNS)?
The GI50 was 4.5 µM.

What about the TGI (SF-295 CNS) of the same compound?
Its TGI is 15 µM.

And the GI50 (U251 CNS)?
The GI50 was 4.45 µM.

And the TGI (U251 CNS)?
The TGI was 11.6 µM.

And the GI50 (HCT-116 colon)?
The GI50 was 3.71 µM.

And the TGI (HCT-116 colon)?
The TGI was 13.3 µM.

And the GI50 (MALME-3M melanoma)?
Its GI50 is 4.73 µM.

And the TGI (MALME-3M melanoma)?
Its TGI is 19.6 µM.

And the GI50 (LOX IMVI melanoma)?
Its GI50 is 1.34 µM.

What about the TGI (LOX IMVI melanoma) of the same compound?
Its TGI is 4.71 µM.

What about the GI50 (HL-60(TB) leukemia) of the same compound?
The GI50 was 4.94 µM.

— PubChem BioAssay (NCI)
